Experimental data published in the OPERA property sets (Mansouri et al. 2018).

In order of rising logP:
1. NC(CC(=O)O)c1ccccc1 (stereo unspecified)  -1.4
2. Cn1ccc(=O)[nH]c1=O  -1.2
3. CC(=O)Nc1ncnc2c1ncn2C  -0.41
4. CNCCN(C)C  -0.2
5. Cc1cc(=O)cc(C)o1  0.1
6. Cc1cnccn1  0.21
7. C=C1C(=O)OC2CC(C)C3C=CC(=O)C3(C)C(O)C12 (stereo unspecified)  0.36
8. CN(C(N)=O)c1ccccc1  0.42
9. O=S(=O)(O)c1ccc2ccccc2c1  0.63
10. CS(=O)(=O)c1ccc(C(=O)O)cc1  0.67
11. Cc1ccc(C(=O)NN)cc1  0.72
12. CC1CC2OC(=O)C(C)C2C(OC(=O)CC(=O)OC2C3C(CC(C)C4CCC(=O)C42C)OC(=O)C3C)C2(C)C(=O)CCC12 (stereo unspecified)  0.76
13. CCCOC=O  0.83
14. C=C(C)C(=O)OCC(C)O (stereo unspecified)  0.97
15. O=CNc1ccccc1  1.15
16. O=C1Cc2ccccc2N1  1.16
17. CSc1ccccc1N  1.2
18. CCOc1ccc(N)cc1  1.24
19. Nc1ccc(C(=O)O)c(F)c1  1.29
20. CCC1=C(N2CC2)C(=O)C(C)=C(N2CC2)C1=O  1.35
21. NCCc1ccccc1  1.41
22. CCOc1cccnc1  1.44
23. OC(c1ccccc1)c1ccccn1 (stereo unspecified)  1.52
24. Nc1cnc2ccccc2c1  1.63
25. CC(C)NCC(O)COc1ccccc1 (stereo unspecified)  1.72
26. COc1ccccc1[N+](=O)[O-]  1.73
27. O=C(O)CSc1c[nH]c2ccccc12  1.78
28. COc1cccc2c1C(=N)c1c(O)c3c(c(O)c1C2=O)CC(O)(C(=O)CO)CC3OC1CC(N2CCOCC2)C(O)C(C)O1 (stereo unspecified)  1.8
29. CCOC(=O)NC(O)C(Cl)(Cl)Cl (stereo unspecified)  1.84
30. CCOC(=O)CC(=O)c1ccccc1  1.87
31. O=C1C(=O)c2cccc3cccc1c23  1.95
32. OCc1ccc(Cl)cc1  1.96
33. CCCCCCCc1nn[nH]n1  2.01
34. Cc1ccc2c(c1)C(=O)C=CC2=O  2.1
35. NC1=C(Cl)C(=O)c2ccccc2C1=O  2.12
36. COC1CC(OC2CCC3(C)C(CCC4C3CC(O)C3(C)C(C5=CC(=O)OC5)CCC43O)C2)OC(C)C1OC1CC(O)C(OC2CC(O)C(OC)C(C)O2)C(C)O1 (stereo unspecified)  2.14
37. COc1cc(SC)c(OC)cc1CC(C)N (stereo unspecified)  2.17
38. O=C(Nc1ccccc1)C(F)(F)F  2.21
39. O=C(O)C1c2ccccc2Oc2ccccc21  2.23
40. O=C(O)c1ccccc1O  2.26
41. Oc1ccccc1Br  2.35
42. CC(=O)Nc1ccc(O)c(C(C)(C)C)c1  2.36
43. Cc1cc(Cl)cc(Cl)c1NC1=NCCN1  2.38
44. Clc1cccc2cccnc12  2.44
45. CC(=O)OCc1ccc(C)cc1  2.44
46. C[C@H]1C[C@H]2[C@@H]3CCC4=CC(=O)C=C[C@]4(C)[C@@]3(F)[C@@H](O)C[C@]2(C)[C@@]1(O)C(=O)CCl  2.48
47. Sc1ccccc1  2.52
48. Cc1cc2ccccc2cn1  2.68
49. CC(=O)Nc1ccc(I)cc1  2.71
50. CCCCBr  2.75
51. Cc1cccc(N(C)C)c1  2.8
52. Brc1cnc2ccccc2c1  3.03
53. O=C(/C=C/c1ccccc1)c1ccccc1  3.08
54. C1=CC=CC=CC=C1  3.08
55. Oc1ccccc1C=Nc1ccccc1  3.09
56. CCCCSC1=CC(=O)c2ccccc2C1=O  3.29
57. Oc1ccc(Oc2ccccc2)cc1  3.35
58. C[C@]12CCC(=O)C=C1CC[C@@H]1[C@@H]2CC[C@@]2(C)[C@H]1CC[C@]2(C)O  3.36
59. O=NN(Cc1ccccc1)c1ccccc1  3.38
60. c1ccc(COc2ccccc2)cc1  3.79
61. Nc1ccc(C(=O)Oc2cccc(Cl)c2)c(O)c1  3.9
62. CCOC(=O)NCCOc1ccc(Oc2ccccc2)cc1  4.3
63. CCCCCCCCCC1(c2ccncc2)CCC(=O)NC1=O (stereo unspecified)  4.64
64. O=C(Nc1ccccc1)N(Cc1ccc(Cl)cc1)C1CCCC1  4.82
65. Clc1cccc(-c2cccc(Cl)c2Cl)c1  5.57
66. Clc1ccc(-c2cc(Cl)ccc2Cl)c(Cl)c1  6.22
